These results are taken from US20130195886A1, “Methods for Fructanase and Fructokinase Inhibition” (The Regents of the University of Colorado, A Body Corporate, priority 2011, published 2013).

As usually defined, the inhibition is the change of the read-out against control, counted positive when it falls.

One assay has as its target T1, KHKC (Homo sapiens, UniProt P50053).
T1 sequence (P50053 1-298): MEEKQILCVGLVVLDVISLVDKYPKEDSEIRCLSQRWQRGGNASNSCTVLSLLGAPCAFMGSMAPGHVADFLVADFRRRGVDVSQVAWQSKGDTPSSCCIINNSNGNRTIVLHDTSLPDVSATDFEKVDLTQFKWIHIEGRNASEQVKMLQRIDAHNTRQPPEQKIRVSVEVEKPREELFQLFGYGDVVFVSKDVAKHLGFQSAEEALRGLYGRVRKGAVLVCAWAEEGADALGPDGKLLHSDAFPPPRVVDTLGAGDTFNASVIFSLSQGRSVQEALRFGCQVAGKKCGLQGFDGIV
Briefly: KHKC % inhibition of virtual-screen hits. The conditions noted are these: for KHKC % Inhibition (10 UM): 10 uM compound; for inhibition at 10 µM: read-out: KHKC % Inhibition (10 µM).

The target of another assay is T2, KHKA (Homo sapiens, UniProt P50053).
T2 sequence (P50053 1-298 isoform P50053-2): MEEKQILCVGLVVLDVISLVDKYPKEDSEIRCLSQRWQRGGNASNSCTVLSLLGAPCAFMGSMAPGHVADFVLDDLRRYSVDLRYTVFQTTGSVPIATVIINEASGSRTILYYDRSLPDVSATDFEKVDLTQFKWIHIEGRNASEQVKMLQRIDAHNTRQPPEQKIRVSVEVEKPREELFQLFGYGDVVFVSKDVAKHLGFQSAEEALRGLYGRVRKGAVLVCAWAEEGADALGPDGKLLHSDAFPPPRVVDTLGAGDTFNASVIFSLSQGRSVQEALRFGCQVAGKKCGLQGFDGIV
Briefly: KHKA % inhibition of virtual-screen hits. To be noted: for inhibition at 10 µM: read-out: KHKA % Inhibition (10 µM).

A further assay deals with mice. Format: in vivo. To be noted: fructose (30%) vs no fructose, p<0.02 Mann Whitney.
Assay [1] relates to human intestinal epithelial cells (CaCo-2). Briefly: fructose exposure of intestinal epithelial cells, polarity and tight junction expression. Format: cell-based.
For the next assay, the system named is wild type (WT) mice. Briefly: fructose feeding, duodenum quantitative real time PCR. Format: in vivo. To be noted: 15% fructose water 3 weeks, actin control. As for the experimental part: In the first set of studies, three-month-old male wild type (WT) mice or fructokinase A/C knockout mice (KHK-A/C KO) (obtained from David Bonthron, Leeds, UK)(72) were administered fructose with normal chow for 3 weeks. […] Due to the different preference for fructose water between WT mice and KHK-A/C KO mice, mice were given 15% or 30% of fructose water, respectively. Both WT mice and KHK-A/C KO mice drank the same amount of fructose (FIG. 4A). For each group, the duodenum was removed after 20 hours of fasting of normal chow and the lining scraped and RNA extracted. Quantitative real time PCR was performed for fructokinase C (KHK-C, FIG. 4B), and tight junction genes occludin (FIG. 4C) and ZO-1 (FIG. 4D) using actin as an internal control.

Assay [2] has as its system allergy-susceptible mice (lacking the toll-like receptor 4). Briefly: Experiment 1: peanut food allergy sensitisation and challenge. The conditions noted are these: fructose 30% in water added to peanuts plus cholera toxin. Format: in vivo.

With `CSc1nn(-c2ccccc2)cc1-c1nc(-c2ccccc2)cs1` [Cpd 3], at KHKC, the “KHKC % Inhibition (10 UM)” value worked out at 19.9% and the inhibition at 10 µM turned out to be 19.9%.

Turning to `CSc1nn(-c2ccccc2)cc1/C(N)=N/OC(=O)Nc1ccc(OC(F)(F)F)cc1` [Cpd 1], the “KHKA % Inhibition (10 UM)” value on KHKA (10 uM compound) stood at 7.0%. Besides, the inhibition at 10 µM at KHKA is 7%. In addition, at KHKC, the “KHKC % Inhibition (10 UM)” value is 25.6% and the inhibition at 10 µM stood at 25.6%.

With `O=C(CO)[C@@H](O)[C@H](O)[C@H](O)CO` [fructose], the “peanut IgE levels” value in the assay with mice is recorded as “higher”. Further, the “expression of genes involved in the maintenance of cell polarity” value in assay [1] (5 mM fructose) is listed as “markedly decreased”. For the same molecule, in assay [1] (fructose exposure), the “expression of transmembrane (claudin-4) and scaffolding (ZO-1 and occluding) proteins at the tight junctions” value is “substantially down-regulated”; the “localisation of polarity/tight junction proteins (confocal analysis)” value is recorded as “translocates them intracellularly from the basolateral membrane domain”. In addition, the expression of e-cadherin entry in assay [1] (fructose for 96 hours) is on record as “dramatically down-regulated”. Moreover, in the assay on wild type (WT) mice, the “KHK mRNA expression” value is “upregulation”, the “ZO-1 mRNA” value is “significant decrease” and the “occludin mRNA” value is listed as “significant decrease”. In assay [2], the “fall in temperature, group 3 compared to group 1” value was “greater fall in temperature” and the “symptoms, group 3 compared to group 1” value is listed as “numerically worse symptoms”.

`CSc1nn(-c2ccccc2)c(N)c1C#N` [Cpd 2]: the “KHKA % Inhibition (100 uM)” value on KHKA (100 uM compound) is listed as 29.4%. For the same molecule, the figures for the inhibition at 10 µM on KHKA and on KHKC were 5.7% and 7.8%, respectively. For the same molecule, the inhibition at 100 µM at KHKA (read-out: KHKA % Inhibition (100 uM)) worked out at 29.4%; at KHKC (read-out: KHKC % Inhibition (100 uM)), 16.8%. Also, on KHKC (100 uM compound), the “KHKC % Inhibition (100 uM)” value came to 16.8%.
